Consider ten compounds from patent publication US10787512B2, “Melatonin monoclonal antibody, detection, methods and uses thereof” (SALIMETRICS, LLC, priority 2013, dated 2020).

In data set [1] the test system is rabbit monoclonal antibody to Melatonin. Nature of the data set: Specificity of Salimetrics Salivary Melatonin kit, cross reactants spiked into saliva. The note with it: spiked into saliva up to 2000 pg/ml; melatonin EC50 (B/Bo=0.5) divided by cross reactant EC50. It counts as binding. As to the method: The Salimetrics™ Salivary Melatonin kit is a competitive immunoassay designed and validated for the quantitative measurement of salivary melatonin. The assay format and detection method are illustrated in FIG. 3, and are briefly summarized as follows: A microtitre plate is coated with rabbit monoclonal antibody to melatonin. Melatonin in standards, controls and unknowns compete with melatonin linked to horseradish peroxidase for the antibody binding sites on the microplate. After incubation, unbound components are washed away. Bound melatonin peroxidase is measured by the reaction of the horseradish peroxidase enzyme with the substrate tetramethylbenzidine (TMB). This reaction produces a blue color. A yellow color is formed after stopping the reaction with 2-molar acid solution. Optical density is read on a standard microplate reader at 450 nm-630 nm. The amount of melatonin-tagged peroxidase detected, as measured by the intensity of color, is inversely proportional to the amount of melatonin present in the sample.
Step 2: Keep the desired number of strips in the strip holder and place the remaining strips back in the foil pouch. Reseal the foil pouch with unused wells and desiccant. Store at 2-8° C. […] Step 3: Pipette 8 ml of Melatonin Assay Diluent into a disposable tube. (Scale down proportionally if not using a full plate). Set aside for Step 5. Step 4: Pipette 100 μL, of standards, controls, and unknown samples into appropriate wells. Standards, controls, and unknown samples should be assayed in duplicate. • Pipette 100 μL, of Melatonin Assay Diluent into 2 wells for the 0 Standard. Step 5: Dilute the enzyme conjugate 1:500 by adding 16 μL of the conjugate to the 8 ml of melatonin assay diluent prepared in Step 3. (Scale down proportionally if not using the entire plate.) Conjugate tube may be centrifuged for a few minutes to bring the liquid down to the tube bottom. Immediately mix the diluted conjugate solution and add 50 μL to each well using a multichannel pipette. Step 6: Place adhesive cover (provided) over plate. Mix plate constantly on a plate rotator at 500 rpm and incubate at 2-8° C. for a total of 3 hours. Step 7: Wash the plate 4 times with 1× wash buffer. A plate washer is recommended. However, washing may be done by gently squirting wash buffer into each well with a squirt bottle, or by pipetting 300 μL, of wash buffer into each well and then discarding the liquid by inverting the plate over a sink. After each wash, the plate should be thoroughly blotted on paper towels before turning upright. If using a plate washer, blotting is still recommended after the last wash. Step 8: Add 100 μL of TMB substrate solution to each well with a multichannel pipette. Step 9: Incubate the plate in the dark at room temperature for 30 minutes mixing constantly on a plate rotator at 500 rpm. Step 10: Add 50 μL of 2M stop solution with a multichannel pipette. Step 11: Mix on a plate rotator for 3 minutes at 500 rpm. Spillage may occur if mixing speed exceeds 600 rpm. If green color remains, continue mixing until green color turns to yellow. Be sure all wells have turned yellow. • Wipe off bottom of plate with a water-moistened, lint-free cloth and wipe dry. • Read in a plate reader at 450 nm with a secondary filter at 620 to 630 nm. Performance characteristics are not known without secondary or reference filter. Read the plate within 10 minutes of adding 2M stop solution. High and Low salivary Melatonin controls should be run with each assay. The control ranges established are to be used as a guide. Each laboratory should establish its own range. Variations between laboratories may be caused by differences in techniques and instrumentation.
Calculations • 1. Compute the average optical density (OD) for all duplicate wells. • 2. Calculate the percent bound (B/Bo) for each standard, control and unknown by dividing the OD of each well (B) by the average OD for the 0 (Bo). • 3. […]

For data set [2] the test system is unchanged. Nature of the data set: Cross reactivity in Rapid Melatonin ELISA (competitive, melatonin-HRP). It counts as binding. Particulars: tested at 10 to 20-fold above the highest standard (50 pg/ml); predicted value as melatonin divided by actual concentration added. As to the method:
A microtitre plate (described below) is coated with the rabbit monoclonal antibody to Melatonin. Melatonin in standards and unknowns competes with Melatonin linked to horseradish peroxidase for the antibody binding sites. After incubation unbound components are washed away. Bound Melatonin peroxidase is measured by the reaction of the peroxidase enzyme on the substrate tetramethylbenzidine (TMB). This reaction produces a blue color. A yellow color is formed after stopping the reaction with 2-molar sulfuric acid. Optical density is read on a standard plate reader at 450 nm. The amount of Melatonin peroxidase detected is inversely proportional to the amount of Melatonin present.
Microwell plates (CoStar High Binder) were coated overnight with 0.5 ug/ml goat anti-rabbit at room temperature [100 uL/well]; Coating Buffer-NaHCO3 (2.93 g)+Na2CO3 (1.59 g) in 1000 ml Water, pH 9.6 under controlled humidity. After washing the plates 3 times in a wash buffer comprised of PBS (phosphate buffered saline) with 0.05% Tween 20, the plates were then coated with the rabbit monoclonal at 10 ng/ml in PBS with 0.01% BSA (bovine serum albumin) overnight at room temperature under controlled humidity. The plates were again washed and coated with 0.5% Stabilcoat (Surmodics) containing 0.1% normal rabbit serum. After approximately 2 hours the plates were aspirated, dried and pouched.
A primary dilution of Melatonin-HRP was made at 50 ug/ml in […]® Conjugate stabilizer (Pierce-Thermo) for storage. At the time of the assay, it is then diluted to 100 ng/ml in a phosphate or Tris Buffered Saline, pH 7.2 with 1% BSA (Diluent).
Melatonin reference material from Cerilliant was diluted in diluent to 50 pg/ml. The standard curve was prepared by making 2× serial dilutions to 0.78 pg/ml in Diluent. Pipette: 100 ul Melatonin Standards/Samples/Controls to each well of the coated microwell plate. Pipette: 50 ul conjugate to each well. Incubate: 3 hr at 2-8° C. or Room Temperature with shaking (˜500 rpm). Wash: 4×300 uL, no soak. Pipette: 100 uL tetramethylbenzidine (TMB). Incubate: Room Temp for 30 min with shaking. Pipette: 50 uL 2M H2SO4. Mix 10-15 seconds. Read Plate: OD 450-630 nm.
Chemical compounds with structural similarity to melatonin were tested at levels 10 to 20-fold higher than the highest standard (50 pg/ml) as samples. The predicted value (as melatonin) was divided by the actual concentration added to calculate % cross-reactivity.

The nature of data set [3]: Storage stability of melatonin in saliva samples. The data set is classed as physicochemical. The note with it: after 4 days at 2-8° C. As to the method: Sample Handling and Preparation • After collection it is important to keep samples cold, to minimize bacterial growth in the specimen. Refrigerate sample within 30 minutes, and freeze at or below −20° C. within 4 hours of collection. […] On day of assay, thaw the saliva samples completely, vortex, and centrifuge at 1500×g (@3000 rpm) for 15 minutes. Centrifuging removes mucins and other particulate matter which may interfere with antibody binding, leading to falsely elevated results. Samples should be at room temperature before adding to assay plate. Pipette clear sample into appropriate wells. Re-freeze saliva samples as soon as possible after adding to the assay plate. Centrifuge/re-centrifuge saliva samples each time that they are thawed. Avoid more than 2 freeze-thaw cycles after the initial freeze/thaw.

In the case of `COc1ccc2[nH]cc(CCN)c2c1` [5-methoxy tryptamine], the “Cross Reactivity” value in data set [1] is recorded as less than 0.05%. The “Cross Reactivity (%)” value in data set [2] is less than 0.05%.

Regarding `COc1ccc2[nH]cc(CCO)c2c1` [5-methoxy tryptophol], the “Cross Reactivity” value in data set [1] was 1.25%. Besides, the “Cross Reactivity (%)” value in data set [2] is recorded as 1.30%. With `COc1cc2c(CCNC(C)=O)c[nH]c2cc1Cl` [6-chloro melatonin], the “Cross Reactivity” value in data set [1] was 5.40%. Also, the “Cross Reactivity (%)” value in data set [2] is 5.40%. For `COc1cc2c(CCNC(C)=O)c[nH]c2cc1O` [6-hydroxy melatonin], the “Cross Reactivity” value in data set [1] is less than 0.05%. In addition, the “Cross Reactivity (%)” value in data set [2] is listed as less than 0.05%. Consider `COc1ccc(NC=O)c(C(=O)CCNC(C)=O)c1` [AFMK, N^1-acetyl-N^2-formyl-5-methoxykynuramine], for which the “Cross Reactivity” value in data set [1] is listed as 16.5%. Moreover, the “Cross Reactivity (%)” value in data set [2] was 16.5%. For `Cn1c(=O)c2c(ncn2C)n(C)c1=O` [Caffeine], the “Cross Reactivity” value in data set [1] is on record as less than 0.05%. The “Cross Reactivity (%)” value in data set [2] was less than 0.05%.

As to `N[C@@H](Cc1c[nH]c2ccccc12)C(=O)O` [L-Tryptophan], the “Cross Reactivity” value in data set [1] is reported as less than 0.05%. The “Cross Reactivity (%)” value in data set [2] is listed as less than 0.05%. Regarding `COc1ccc2[nH]cc(CCNC(C)=O)c2c1` [Melatonin, N-acetyl-5-methoxytryptamine], the “Decrease of Melatonin levels” value in data set [3] is not below 20%. With `CC(=O)NCCc1c[nH]c2ccc(O)cc12` [N-acetyl serotonin], the “Cross Reactivity” value in data set [1] is less than 0.05%. Moreover, the “Cross Reactivity (%)” value in data set [2] is less than 0.05%. In the case of `NCCc1c[nH]c2ccc(O)cc12` [Serotonin], the “Cross Reactivity” value in data set [1] is given as less than 0.05%. In data set [2], the “Cross Reactivity (%)” value was less than 0.05%.
